Values joined by “and” are separate entries in the source; they are usually repeats but may differ in a detail not shown here. Equal values may be shown once. Read-outs that look alike come from different tables or passages of the source.
Legend:
[1] = tested on: MCF-7 breast cancer cells; assay: alamarBlue cell viability assay; assay type: cell-based; conditions: Homo sapiens, MCF7, MCF-7
Method: Figure 5 Preliminary cell viability data for Series 1: (A) compounds 22a–22g and chalcone 20b and Series 2: (B) compounds 23a–e and chalcone 20b in MCF-7 breast cancer cells. Cell proliferation of MCF-7 cells was determined with an alamarBlue assay (seeding density 2.5 × 10^4 cells/mL per well for 96-well plates). Compound concentrations of either 1 or 0.1 μM for 72 h were used to treat the cells (in triplicate) with control wells containing vehicle ethanol (1% v/v). The mean value ± SEM for three independent experiments is shown. The positive controls used are CA-4 and phenstatin (1.0 μM and 0.1 μM). Statistical analysis was performed using One-way ANOVA with the Sidak multiple comparison test (***, p < 0.001).
HL-60 cells were suspension cells and the seeding density for the viability assay was 25,000 cells/mL. MCF-7 cells (adherent) were cultured in Minimum Essential Media (MEM) with GlutaMAX™-I, supplemented with 1% (v/v) non-essential amino acids, 10% (v/v) fetal bovine serum (FBS), purchased from BD Biosciences (Edmund Halley Road, Oxford, UK), and 1% (v/v) penicillin/streptomycin 5000 U/mL. The MCF-7 cells used in the screening of the compounds during these experiments were mycoplasma-free. The seeding density of MCF-7 in the viability assay was 25,000 cells/mL and 50,000 cells/mL in the FACS assay. Normal breast cells (MCF-10A) (adherent) were cultured in Dulbecco’s Modified Eagle Medium: Nutrient Mixture F-12 (DMEM/F12; Gibco) supplemented with 5% horse serum (Invitrogen, Waltham, MA, USA), 20 ng/mL epidermal growth factor (Merck Millipore, Burlington, MA, USA), 0.5 μg/mL hydrocortisone (Sigma, Kanagawa, Japan), 100 ng/mL cholera toxin (Sigma), 10 μg/mL insulin (Sigma), and penicillin/streptomycin 5000 U/mL (1%) (Gibco, Waltham, MA, USA). […] MDA-MB-231 cells were cultured in Dulbecco’s Modified Eagle Medium, which was supplemented with 10% (v/v) fetal bovine serum (FBS) and 1% (v/v) penicillin/streptomycin 5000 U/mL. When not in use, all cells were kept in liquid nitrogen and frozen in a freezing media made of 90% FBS and 10% DMSO. All cells were grown in an atmosphere of 5% CO2/95% air in T75 culture flasks. The media was changed every 2–3 days and media was always prewarmed to 37 °C. All were sub-cultured every 3–4 days by trypsinization using TrypLE™ Express enzyme when confluence was reached to allow growth, prevent excessive cell death, and minimize the risk of infections derived by over-confluence. For the cell viability assay, the number of cells per milliliter was 25,000 cells/mL while the FACS assay utilized 50,000 cells/mL. Cells were maintained at 37 °C in 5% CO2 in a humidified incubator.
The biochemical assays were performed in triplicate and on at least three independent occasions to facilitate the determination of mean values. For the viability assay, cells were grown until 80% confluent. Adherent cells such as MCF-7, MDA-MB-231, and MCF-10A were trypsinized to detach them from the flask, counted as previously described, and seeded in 96 well plates with a seeding density of 25,000 cells /mL (200 µL of suspension in each well so that the final number of cells per well was 5000) and 1 × 10^4 cells/well seeding density for suspension HL-60 cells. Adherent cells were incubated for 24 h after being seeded in the 96 well plate and treated on the following day, while suspension cells were treated on the same day of the seeding. In both cases, the incubation time after the treatment with the drug was 72 h. After 68 h incubation, the AlamarBlue was added (20 µL in each well) and the incubation time was completed. After 72 h, the change in color was measured by spectrofluorimetry at an excitation wavelength of 544 nm and emission wavelength of 590 nm. AlamarBlue is a cell viability indicator containing a compound called resazurin. AlamarBlue is water soluble, stable in culture media, non-toxic, and is permeable through the cell membrane. […]

breast cancer panel = assay: NCI60 screen (SRB), panel mean; assay type: cell-based, human; conditions: BC panel; one dose 10 µM; 48 h
MOLT-4 (Leukemia) = assay: NCI60 screen (SRB); assay type: cell-based, human; conditions: one dose 10 µM, 48 h
SR (Leukemia) = assay: NCI60 screen (SRB); assay type: cell-based, human; conditions: 48 h; for growth percent: one dose 10 µM
[2] = tested on: NCI-H226 (Non-Small Cell Lung Cancer); assay: NCI60 screen (SRB); assay type: cell-based, human; conditions: 48 h; for growth percent: one dose 10 µM
[3] = tested on: NCI-H23 (Non-Small Cell Lung Cancer); assay: NCI60 screen (SRB); assay type: cell-based, human; conditions: 48 h; for growth percent: one dose 10 µM
[4] = tested on: NCI-H322M (Non-Small Cell Lung Cancer); assay: NCI60 screen (SRB); assay type: cell-based, human; conditions: 48 h; for growth percent: one dose 10 µM
[5] = tested on: NCI-H460 (Non-Small Cell Lung Cancer); assay: NCI60 screen (SRB); assay type: cell-based, human; conditions: for growth percent: one dose 10 µM; for GI50: five-dose
HCT-116 (Colon Cancer) = assay: NCI60 screen (SRB); assay type: cell-based, human; conditions: 48 h; for growth percent: one dose 10 µM
KM12 (Colon Cancer) = assay: NCI60 screen (SRB); assay type: cell-based, human; conditions: 48 h; for growth percent: one dose 10 µM
SF-268 (CNS Cancer) = assay: NCI60 screen (SRB); assay type: cell-based, human; conditions: 48 h; for growth percent: one dose 10 µM
SF-295 (CNS Cancer) = assay: NCI60 screen (SRB); assay type: cell-based, human; conditions: 48 h; for growth percent: one dose 10 µM
SF-539 (CNS Cancer) = assay: NCI60 screen (SRB); assay type: cell-based, human; conditions: 48 h; for growth percent: one dose 10 µM
MDA-MB-435 (Melanoma) = assay: NCI60 screen (SRB); assay type: cell-based, human; conditions: 48 h; for growth percent: one dose 10 µM
SK-MEL-28 (Melanoma) = assay: NCI60 screen (SRB); assay type: cell-based, human; conditions: 48 h; for growth percent: one dose 10 µM
UACC-257 (Melanoma) = assay: NCI60 screen (SRB); assay type: cell-based, human; conditions: 48 h; for growth percent: one dose 10 µM
ACHN (Renal Cancer) = assay: NCI60 screen (SRB); assay type: cell-based, human; conditions: 48 h; for growth percent: one dose 10 µM
MCF7 (Breast Cancer) = assay: NCI60 screen (SRB); assay type: cell-based, human; conditions: 48 h; for growth percent: one dose 10 µM
HS 578T (Breast Cancer) = assay: NCI60 screen (SRB); assay type: cell-based, human; conditions: 48 h; for growth percent: HS 578T, one dose 10 µM

COc1ccc(/C=C/C(c2cc(OC)c(OC)c(OC)c2)n2cncn2)cc1 (centres unmarked) [Compound 22a, (E)-1-(3-(4-Methoxyphenyl)-1-(3,4,5-trimethoxyphenyl)allyl)-1H-1,2,4-triazole]
viability at 1 µM ([1]; 72 h, read-out: viable cells): 60%
mean growth percentage (breast cancer panel): 40.1%
growth percent (MOLT-4 (Leukemia)): 39.43%
growth percent (SR (Leukemia)): 18.93%
growth percent [2]: 75.97%
growth percent [3]: 67.01%
growth percent [4]: 61.24%
growth percent ([5]; 48 h): 22.14%
growth percent (HCT-116 (Colon Cancer)): 21.99%
growth percent (KM12 (Colon Cancer)): 30.66%
growth percent (SF-268 (CNS Cancer)): 57.07%
growth percent (SF-295 (CNS Cancer)): 22.52%
growth percent (SF-539 (CNS Cancer)): 56.52%
growth percent (MDA-MB-435 (Melanoma)): −9.62%
growth percent (SK-MEL-28 (Melanoma)): 62.59%
growth percent (UACC-257 (Melanoma)): 46.44%
growth percent (ACHN (Renal Cancer)): 57.45%
growth percent (MCF7 (Breast Cancer)): 22.5% and 22.48%
growth percent (HS 578T (Breast Cancer)): 51.18%

COc1ccc(/C=C/C(c2cc(OC)c(OC)c(OC)c2)n2cncn2)cc1O (centres unmarked) [Compound 22b, (E)-5-(3-(1H-1,2,4-Triazol-1-yl)-3-(3,4,5-trimethoxyphenyl)prop-1-en-1-yl)-2-methoxyphenol]
IC50 [1]: 390 nM
viability at 0.5 µM ([1]; 0.5 μM, 72 h, Figure 9C): 70%
viability at 1 µM ([1]; 72 h, Figure 9C, read-out: cell viability): 30%
viability at 1 µM ([1]; 72 h, read-out: viable cells): 40%
viability at 10 µM ([1]; 10 μM, 72 h, Figure 9C): 20%
IC50 ([1]; 72 h): 385 ± 120 nM
mean growth percentage (breast cancer panel): 29.1%
growth percent (MOLT-4 (Leukemia)): 21.84%
GI50 (SR (Leukemia); Homo sapiens, five-dose): 24.8 nM
growth percent (SR (Leukemia)): 5.67%
GI50 ([2]; Homo sapiens, five-dose): 5.93 µM
growth percent [2]: 62.21%
GI50 ([3]; Homo sapiens, five-dose): 3.47 µM
growth percent [3]: 41.50%
IC50 ([4]; Homo sapiens, five-dose, read-out: IC50 (cell marked * in GI50 column)): > 100 µM
growth percent [4]: 54.65%
GI50 ([5]; Homo sapiens, NCI-H460, 48 h): 42 nM
GI50 ([5]; 48 h): 42.3 nM
growth percent ([5]; 48 h): 13.26%
GI50 (HCT-116 (Colon Cancer); Homo sapiens, five-dose): 41 nM
growth percent (HCT-116 (Colon Cancer)): 10.52%
GI50 (KM12 (Colon Cancer); Homo sapiens, five-dose): 40.5 nM
growth percent (KM12 (Colon Cancer)): 26.67%
GI50 (SF-268 (CNS Cancer); Homo sapiens, five-dose): 58.9 nM
growth percent (SF-268 (CNS Cancer)): 54.09%
IC50 (SF-295 (CNS Cancer); Homo sapiens, five-dose, read-out: IC50 (cell marked * in GI50 column) (converted)): 3.72 µM
growth percent (SF-295 (CNS Cancer)): 1.43%
GI50 (SF-539 (CNS Cancer); Homo sapiens, five-dose): 26.7 nM
growth percent (SF-539 (CNS Cancer)): −4.58%
GI50 (MDA-MB-435 (Melanoma); Homo sapiens, five-dose): 18.3 nM
growth percent (MDA-MB-435 (Melanoma)): −32.99%
GI50 (SK-MEL-28 (Melanoma); Homo sapiens, five-dose): 3.62 µM
growth percent (SK-MEL-28 (Melanoma)): 59.08%
GI50 (UACC-257 (Melanoma); Homo sapiens, five-dose): > 100 µM
growth percent (UACC-257 (Melanoma)): 55.61%
GI50 (ACHN (Renal Cancer); Homo sapiens, five-dose): 57.9 nM
growth percent (ACHN (Renal Cancer)): 63.11%
GI50 (MCF7 (Breast Cancer); Homo sapiens, five-dose): 33 nM
growth percent (MCF7 (Breast Cancer)): 21.2% and 21.22%
growth percent (HS 578T (Breast Cancer)): 28.47%
IC50 (HS 578T (Breast Cancer); Homo sapiens, Hs-578T, read-out: IC50 (cell marked * in GI50 column)): > 100 µM

COc1ccc(/C=C/C(c2cc(OC)c(OC)c(OC)c2)n2ccnc2)cc1O (centres unmarked) [Compound 23b, (E)-5-(3-(1H-Imidazol-1-yl)-3-(3,4,5-trimethoxyphenyl)prop-1-en-1-yl)-2-methoxyphenol]
viability at 0.1 µM ([1]; 0.1 μM, 72 h, read-out: viable cells): 75%
viability at 1 µM ([1]; 72 h, read-out: viable cells): 74%
mean growth percentage (breast cancer panel): 38.1%
growth percent (MOLT-4 (Leukemia)): 31.88%
growth percent (SR (Leukemia)): 6.18%
growth percent [2]: 88.36%
growth percent [3]: 55.69%
growth percent [4]: 45.84%
growth percent ([5]; 48 h): 16.55%
growth percent (HCT-116 (Colon Cancer)): 16.67%
growth percent (KM12 (Colon Cancer)): 29.04%
growth percent (SF-268 (CNS Cancer)): 56.10%
growth percent (SF-295 (CNS Cancer)): 16.59%
growth percent (SF-539 (CNS Cancer)): 23.09%
growth percent (MDA-MB-435 (Melanoma)): −25.56%
growth percent (SK-MEL-28 (Melanoma)): 58.86%
growth percent (UACC-257 (Melanoma)): 34.19%
growth percent (ACHN (Renal Cancer)): 46.34%
growth percent (MCF7 (Breast Cancer)): 17.9% and 17.87%
growth percent (HS 578T (Breast Cancer)): 32.05%

COc1ccc(C2CC(n3ccnc3)c3cc(OC)c(OC)c(OC)c32)cc1O (centres unmarked) [Compound 27a, 5-(3-(1H-Imidazol-1-yl)-5,6,7-trimethoxy-2,3-dihydro-1H-inden-1-yl)-2-methoxyphenol]
mean growth percentage (breast cancer panel): 79.1%
growth percent (MOLT-4 (Leukemia)): 90.04%
growth percent (SR (Leukemia)): 35.42%
growth percent [2]: 97.37%
growth percent [3]: 91.50%
growth percent [4]: 101.51%
growth percent ([5]; 48 h): 78.74%
growth percent (HCT-116 (Colon Cancer)): 81.13%
growth percent (KM12 (Colon Cancer)): 50.59%
growth percent (SF-268 (CNS Cancer)): 89.96%
growth percent (SF-295 (CNS Cancer)): 57.51%
growth percent (SF-539 (CNS Cancer)): 89.80%
growth percent (MDA-MB-435 (Melanoma)): 5.00%
growth percent (SK-MEL-28 (Melanoma)): 78.29%
growth percent (UACC-257 (Melanoma)): 58.46%
growth percent (ACHN (Renal Cancer)): 86.36%
growth percent (MCF7 (Breast Cancer)): 44.8% and 44.77%
growth percent (HS 578T (Breast Cancer)): 85.38%

From paper PMC11769294, “(E)-1-(3-(3-Hydroxy-4-Methoxyphenyl)-1-(3,4,5-Trimethoxyphenyl)allyl)-1H-1,2,4-Triazole and Related Compounds: Their Synthesis and Biological Evaluation as Novel Antimitotic Agents Targeting Breast Cancer” (Pharmaceuticals, 2025)
